Experimental findings from US9888679B2, “Protection of progenitor cells and regulation of their differentiation” (Proteobioactives Pty Ltd, priority 2007, dated 2018) are described below.

One assay relates to human progenitor cells. As to the kind of experiment: Proteoglycan synthesis in micromass cultures, 5 days. The class given is cell-based. As to conditions: 5 day micromass; for proteoglycan synthesis / chondrogenic differentiation: dextran polysulfate 1-20 micrograms/mL, FIG. 19B; for proteoglycan synthesis (35SO4 incorporation into PGs): hyaluronan in place of PPS, FIG. 19A. An excerpt:
FIG. 17. Bar graphs showing the concentration dependent effects of PPS on proteoglycan synthesis by human progenitor cells in micromass cultures for 5 days. Data is presented as 35S-GAG radioactivity and as a percentage of control taken as 100%. * P<0.05 relative to control.
FIG. 19. Bar graphs showing the concentration dependent effects of (A) Hyaluronan (Supartz™) and (B) Dextran Polysulfate on proteoglycan synthesis by human progenitor cells in micromass cultures for 5 days. Data is presented as ^35S-GAG radioactivity and as a percentage of control, taken as 100% or as DPM/ug DNA. * P<0.05 relative to control.
The technique used was based on that described by (Denker A E, Haas A R, Nicoll S B and Tuan R S. Chondrogenic differentiation of murine C3H10T1/2 multipotential progenitor cells: I. Stimulation by bone morphogenetic protein-2 in high density micromass cultures. Differentiation (1999); 64: 67-76). Briefly murine Progenitor cells (cell lines C3H10T1/2 or ATDC5) purchased from RIKEN Cell Bank (Tsukuba, Japan) or human immunoselected Stro-1+ Progenitor cells (Mesoblast Ltd, Melbourne, Australia) Ten microlitres (10 μl) of a suspension of the progenitor cells (1×10^7 cells/ml in Ham's F12 medium+10% FBS) were applied to individual wells of a 24-well plates. After incubatation at 37° C. in a humidified atmosphere of 5% CO2/95% air for 2-3 hours, 900 μl of Ham's F12 medium (10% FBS) and 100 μl of PPS solution in the same medium were added slowly into the wells to afford final concentrations of PPS in each of 0, 0.1, 0.5, 1.0, 2.5, 5.0, 10.0, 20.0 μg/ml alone or in combination with rhNC4 (0, 0.1, 0.5, 1.0, 2.5, 5.0, 10.0, 25.0 μg/ml). Each drug concentration was repeated in triplicate. The cells were maintained in culture for up to 10 days. The medium with/without drugs was changed every 3 days but 24 hours before termination of the experiment 80 μl of 50 μCi/ml ^35S-H2SO4 was added to achieve a final ^35SO4 concentration of 5 μCi/ml. The following day, the cells in one of the plates were trypsinized with 150 μl/well of 2.5% trypsin and separated from the medium by centrifugation at 800 g for 10 minutes, washed with 500 μl of 1×PBS and stored in liquid nitrogen for RNA and/or DNA extraction and analysis. Media and supernatants were combined in one tube for each concentration of PPS used. To the tubes was added, 200 μl of 5× Papain solution [2.5 mg/ml Papain, 7.9 mg/ml L-Cysteine in Papain buffer (0.1 M NaAC, 5 mM EDTA, pH6.0)] and the solution incubated at 65° C. for 2 hours. After papain digestion, Four aliquots of 200 μl of digested solution were transferred to a 96-well plate (200 μl/well). The ^35S-GAG released by the digestion step were separated from the free ^35SO4 by adding 20 μl 5% CPC and 10 μl 1 mg/ml CSA with gentle shaking at 300 rpm RT for 20-30 min to precipitate the ^35S-GAG-CPC complexes. The precipitates were collected by filtered through glass fibre filters using a cell harvester. The filters were then air-dried and discs punched to scintillation vials. 3 ml/vial scintillation cocktail liquid was added and vortexed for 30-45 sec. The radioactivity of ^35S—SO4 incorporated the ^35S-GAG-CPC complexes was measured by scintillation counting.
Data is presented as 35S-GAG radioactivity and as a percentage of control taken as 100%. * P<0.05 relative to control.
Similar experiments were undertaken using Hyaluronic acid (SuperArtz (SKK, Tokyo, Japan)) and Dextran polysulfate (MW=5000) (Sigma, Sydney, Australia) in place of PPS. […] Data is presented as 35S-GAG radioactivity and as a percentage of control taken as 100% or as DPM/ug DNA. * P<0.05 relative to control.

The test system of another assay is ATDC5 cell. As to the kind of experiment: Kinetics of ATDC5 cell growth over 13 days. The class given is cell-based, murine. As to conditions: rhNC4 (batch PBA-1200P) 5 ug/ml or Insulin 10 ug/ml; 20,000 cells per well at Day 0; FIG. 30. Here is the method:
FIG. 30. A bar graph of the kinetics of ATDC5 cell growth induced by rhNC4 (batch PBA-1200P) (5 ug/ml) or Insulin (10 ug/ml) relative to control over 13 days. 20,000 cells per well were seeded at Day 0 (Start) with medium changes every 48 hrs. Insulin treated cultures reached confluence on day 6 and PBA-1200P on day 9. Control cultures also reached confluence on day 9 but in contrast to cultures containing insulin or PBA-1200P ceased to undergo replication.

Assay [1] has as its system Primary human progenitor cells. As to the kind of experiment: Progenitor cell proliferation, WST-1 assay. As to conditions: HA alone; day 3 and day 5 cultures; FIG. 20. The class given is cell-based. The procedure:
FIG. 4. The Effects of Pentosan Polysulfate (PPS) on Human Progenitor cell Proliferation. Primary human progenitor cells were cultured in 24 well plates in growth media supplemented with PPS at the indicated concentrations. At various time intervals (day 1, 3, 6), the growth media was removed and replaced with phenol red free media containing the tetrazolium salt WST-1 for 2 hours at 37° C./5% CO2. WST-1 is cleaved by mitochondrial dehydrogenase in viable cells to produce a formazan dye that can be detected using an ELISA plate reader at a wavelength of 450 nm. Absorbance at 450 nm for each time point is shown for all concentrations of PPS.
FIG. 20. […] At various time intervals (day 3 & 5), the growth media was removed and replaced with phenol red free media containing the tetrazolium salt WST-1 for 2 hours at 37° C./5% CO2. Absorbance at 450 nm for each time point is shown for all concentrations of PPS and HA.
Primary human progenitor cells were cultured in 24 well plates in growth media supplemented with PPS at the indicated concentrations. At various time intervals (day 1, 3, 6), the growth media was removed and replaced with phenol red free media containing the tetrazolium salt WST-1 for 2 hours at 37° C./5% CO2. WST-1 is cleaved by mitochondrial dehydrogenase in viable cells to produce a formazan dye that can be detected using an ELISA plate reader at a wavelength of 450 nm. Absorbance at 450 nm for each time point is shown for all concentrations of PPS.

The subject of another assay is Murine ATDC5 cell line. As to the kind of experiment: Proteoglycan biosynthesis (35S-GAG) in pellet cultures. It counts as cell-based. To be noted: FIG. 14; for chondrogenic effect / proteoglycan synthesis: Heparin 1.25-20 ug/mL, 6 day pellet culture. An excerpt: FIG. 12. A bar graph of the concentration dependent effects of Pentosan Polysulfate (PPS), on the biosynthesis of Proteoglycans (PGs) as determined by the incorporation of radioactively labelled sulfate into the sulfated glycosaminoglycans (^35S-GAG) of PGs in 6 day pellet cultures of murine progenitor cells (ADTC-5). *=p<0.05 relative to control.
FIG. 22. A bar graph of the concentration dependent effects of rhNC4 (batch PBA-1202P) expressed by K. lactis, in the absence (maintenance media, MM) and presence of insulin (10 micrograms/mL) (differentiation media, DM), on the biosynthesis of Proteoglycans PGs) in pellet cultures of ATDC5 cells. Data is shown as the % change relative to controls taken to be 100%.
Murine Progenitor cells (cell lines C3H10T1/2 or ATDC5) purchased from RIKEN Cell Bank (Tsukuba, Japan) or human immunoselected Stro-1+ Progenitor cells (Mesoblast Ltd, Melbourne, Australia) were seeded in 2 ml screw-capped sterile centrifuge tubes and the total volume made-up to 1 ml with DMEM-High glucose medium containing 10% FBS. Progenitor cells were then centrifuged at 500 g for 10 min in a swing-out rotor at room temperature. The screw caps were loosened and the tubes placed in an incubator at 37° C., in a 5% CO2/95% air moist atmosphere. The pellets generally formed within 24 hours. Medium was changed daily in the first two days, then once every 2-3 days thereafter. On day 5 the medium was removed and to each tube was added 1 ml with DMEM-High glucose medium containing 10% FBS, 5.0 μCi/ml ^35S-H2SO4 and various concentrations of PPS (0, 0.1, 0.5, 1.0, 2.5, 5.0, 10.0, 20.0, μg/ml) (FIG. 12-15) or rhNC4 (0, 0.1, 0.5, 1.0, 2.0 μg/ml) (FIG. 22). Triplicate cultures were used for all concentration of drugs. The screw caps were loosened and the tubes placed in an incubator at 37° C., in a 5% CO2/95% moist air atmosphere […]. On day 6, 200 μl of stock papain solution [2.5 mg/ml papain, 7.9 mg/ml L-Cystein in papain buffer (0.1 M NaAC, 5 mM EDTA, pH6.0)] was added to each tube. The tubes were tightly capped and incubated at 65° C. for 2 hours. After papain digestion, 4 replicates of 200 μl of papain digested solution were separately transferred to a 96-well micro-titre plate (200 μl/well). The remaining solution was used for the DNA fluorometric assays which were undertaken in triplicate as described above. Biosynthesis of ^35S-GAGs was determined as described for the monolayer cultures and the results expressed as ^35-S-GAGs/μg DNA.
Data is shown as the % of controls taken to be 100%.

Entries after “also recorded” stand apart in the source; their conditions may differ.

For Dextran polysulfate, the “proteoglycan synthesis / chondrogenic differentiation” value was “downregulate or repress differentiation” with human progenitor cells, “inhibited PG synthesis” with human progenitor cells (listed as Dextran Sulfate (DS)) and “concentration dependent reduction in the production of proteoglycans” in the assay with human progenitor cells (listed as dextran sulfate).
With Insulin, the “day on which cultures reached confluence” value with ATDC5 cell came out at 6 days.
As to Hyaluronan [HA], the “proteoglycan synthesis (35SO4 incorporation into PGs)” value with human progenitor cells is reported as “appeared to increase synthesis of proteoglycans but not strongly”; in the assay with human progenitor cells (listed as hyaluronan (HA)) it was “low level of ^35SO4 incorporation into PGs”. Besides, in assay [1], the “progenitor cell proliferation (WST-1)” value is on record as “absence of any significant stimulatory effect”.
On to Heparin, for which the results for the “chondrogenic effect / proteoglycan synthesis” value in the assay on Murine ATDC5 cell line and with Murine ATDC5 cell line (listed as heparin) were “does not exhibit a chondrogenic effect; also recorded: failed to significantly stimulate proteoglycan synthesis” and “suppressing chondrogenesis”, respectively. In addition, the proteoglycan synthesis entry in the assay on Murine ATDC5 cell line (Heparin 2.5 ugrams/mL, pellet culture) is listed as “little activity”; in the assay with Murine ATDC5 cell line (Heparin at higher concentrations (above 2.5 ugrams/mL)), “may cause inhibition”.
